From US11208404B2 (PERENNA PHARMACEUTICALS, INC., priority 2017, dated 2021)
“And” between values parts separate entries of the source, which are not always exact repeats. Equal entries are not always repeated.

Target: ALCAT1 (Homo sapiens (Human), UniProt Q6UWP7)
Assay: In vitro acyltransferase assay for ALCAT1 inhibitors
Assay type: biochemical
Conditions: for % inh @ 1 μM / inhibition at 1 µM: 1 μM compound; for % inh @ 1 μM / inhibition at 1 µM / % inh @ 10 μM / inhibition at 10 µM: in vitro enzymatic assay; for % inh @ 10 μM / inhibition at 10 µM: 10 μM compound; for IC50: ALCAT1 enzyme activity, triplicates, GraphPad, read-out: IC50
From the text: The human ALCAT1 protein were expressed in Spodoptera frugiperda (Sf9) insect cells by using a Bac-to-Bac baculovirus expression system (Invitrogen) according to the manufacturer's instruction. High-titer recombinant baculovirus expressing the human ALCAT1 protein was generated by several rounds of viral amplification. The Sf9 cells were typically infected with recombinant baculovirus for 3 days, harvested in ice-cold phosphate-buffered saline (PBS), and homogenized in 20 mm NaCl by going through French press. The total cell lysates were centrifuged at 10,000×g for 1 hours at 4° C. to eliminate the nucleus fraction, followed by ultracentrifugation at 100,000×g to pallet the membrane fraction. The membrane fraction was resuspended in enzymatic buffer that contain 10% glycerol, quantified for protein concentration, aliquoted, and stored at −80° C.
ALCAT1 enzymatic activity was determined by measuring the conversion of monolysocardiolipin (MLCL) to cardiolipin or lysophosphatidylglycerol (LPG) to phosphatidylglycerol (PG) in an enzymatic reaction mixture that contained 50 mm Tris/HCl, pH 7.0, 100 μm lysophospholipids, 25 μm [^14C]acyl-CoA (50 mCi/mmol, American Radiolabeled Chemicals, Inc), and membrane fraction (0.5-2.5 μg) in a total volume of 200 μl. The reaction was incubated at room temperature for 30 min. The lipids were extracted will chloroform, dried, and separated by thin layer chromatography (TLC) with chloroform:hexane:methanol:acetic acid (50:30:10:5, v/v) or chloroform:methanol:water (65:25:4, v/v). After separation, TLC plates were exposed to a Phosphorlmager screen to visualize the radiolabeled products with a Molecular Dynamics Typhoon Scanner (Sunnyvale, Calif.). In some experiments, NBD-CoA was used at 100 μM to replace the [^14C]acyl-CoA in the enzymatic reaction. All quantitative data were expressed as mean±S.E. Statistical analyses for differences between two groups were carried out using a Student's t test.
Compound inhibitors for ALCAT1 enzyme were analyzed by an in vitro enzymatic assay as detailed above. Compound inhibitors were added to the enzymatic mixture at 1-20 μM concentrations before the start of the acyltransferase reaction.
Where multiple measurements were taken this is indicated by a “/” between multiple values.
IC50 values for each compound were analyzed in triplicates, and calculated by GraphPad software.

ALCAT1, sequence (Q6UWP7 whole entry): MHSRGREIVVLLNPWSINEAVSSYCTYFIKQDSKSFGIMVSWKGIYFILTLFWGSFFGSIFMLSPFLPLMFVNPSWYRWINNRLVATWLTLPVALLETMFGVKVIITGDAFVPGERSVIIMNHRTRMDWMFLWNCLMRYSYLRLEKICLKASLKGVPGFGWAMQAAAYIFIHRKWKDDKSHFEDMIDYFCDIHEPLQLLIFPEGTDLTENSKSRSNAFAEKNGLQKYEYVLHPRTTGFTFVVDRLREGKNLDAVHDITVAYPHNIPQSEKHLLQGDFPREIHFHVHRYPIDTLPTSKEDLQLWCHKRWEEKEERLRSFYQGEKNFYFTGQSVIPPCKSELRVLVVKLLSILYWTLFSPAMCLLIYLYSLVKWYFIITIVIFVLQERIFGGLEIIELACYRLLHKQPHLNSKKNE

Compound	% inh @ 1 μM	inhibition at 1 µM [%]	% inh @ 10 μM	IC50 [nM]	inhibition at 10 µM [%]
O=C(Nc1cccc(-c2nnc(-c3ccco3)o2)c1)c1ccc(C(F)F)cc1 [Compound 10]	–	–	–	–	2
O=C(Nc1cccc(-c2nnc(-c3cccs3)o2)c1)c1ccccc1F [Compound 15, 2-fluoro-N-(3-(5-(thiophen-2-yl)-1,3,4-oxadiazol-2-yl)phenyl)benzamide]	–	20	–	–	–
O=C(Nc1cccc(-c2nnc(-c3ccsc3)o2)c1)c1ccccc1F [Compound 21]	–	–	–	–	85
O=C(Nc1cccc(-c2nnc(C3CCCO3)o2)c1)c1ccccc1F (stereo not shown) [Compound 22, 2-fluoro-N-(3-(5-(tetrahydrofuran-2-yl)-1,3,4-oxadiazol-2-yl)phenyl)benzamide]	–	20	–	–	8
O=C(Nc1ccc(F)c(-c2nnc(-c3ccco3)o2)c1)c1ccccc1F [Compound 28]	–	–	–	–	51
N#Cc1ccc(C(=O)Nc2cccc(-c3nnc(-c4ccco4)o3)c2)cc1 [Compound 36]	–	–	–	–	1
O=C(Nc1cccc(-c2nnc(-c3ccco3)o2)c1)c1cccnc1F [Compound 37]	–	–	87%	3900	76
O=C(Nc1cc(-c2nnc(-c3ccco3)o2)ccn1)c1ccccc1F [Compound 39, 2-Fluoro-N-(4-(5-(furan-2-yl)-1,3,4-oxadiazol-2-yl)pyridin-2-yl)benzamide]	–	92	–	93	–
O=C(Nc1cccc(-c2nnc(-c3ccno3)o2)c1)c1ccccc1F [Compound 42]	–	23	–	–	70
O=C(Nc1ccccc1F)c1cccc(-c2nnc(-c3ccco3)o2)c1 [Compound 44, N-(2-fluorophenyl)-3-(5-(furan-2-yl)-1,3,4-oxadiazol-2-yl)benzamide]	–	26	–	990	–
O=C(Nc1cncc(-c2nnc(-c3ccco3)o2)c1)c1ccccc1F [Compound 51]	57%	43	–	–	–
Cc1cccc(C(=O)Nc2cccc(-c3nnc(-c4ccco4)o3)c2)c1 [Compound 57]	–	–	89% and 94%	2800	75
O=C(Nc1cccc(-c2nnc(-c3ccco3)o2)c1)c1cccc(O)c1 [Compound 62]	–	2	–	–	11
O=C(Nc1cccc(-c2nnc(-c3ccco3)o2)c1)c1ccccc1O [Compound 64]	–	15	–	–	55
Nc1ccccc1C(=O)Nc1cccc(-c2nnc(-c3ccco3)o2)c1 [Compound 77]	–	37	–	–	21
Cc1c(NC(=O)c2ccccc2F)cccc1-c1nnc(-c2ccco2)o1 [Compound 78]	59%	42	–	–	–
O=C(Nc1cccc(-c2nnc(-c3ccc(Cl)o3)o2)n1)c1ccccc1F [Compound 82]	–	23	–	–	3
O=C(Nc1cccc(-c2nnc(-c3ccco3)o2)c1)c1ccccc1I [Compound 83]	–	36	–	–	43
O=C(Nc1cccc(-c2nnc(-c3ccco3)o2)c1)c1cccc([N+](=O)[O-])c1 [Compound 87]	–	29	–	–	62
O=C(Nc1cccc(-c2nnc(-c3ccco3)o2)c1)C1CCCCC1 [Compound 98]	–	11	–	–	2
COc1ccc(I)cc1C(=O)Nc1cccc(-c2nnc(-c3ccco3)o2)c1 [Compound 113]	–	96	–	110	94
COc1ccc(C(=O)O)cc1C(=O)Nc1cccc(-c2nnc(-c3ccco3)o2)c1 [Compound 114]	–	36	–	–	48

Next, values leading:

% inh @ 1 μM	inhibition at 1 µM [%]	% inh @ 10 μM	IC50 [nM]	inhibition at 10 µM [%]	Compound
63%	59	48% and 49% and 79%	210	–	O=C(Nc1cccc(-c2nnc(-c3ccco3)o2)c1)c1ccccc1F [Compound 1]
–	–	–	4100	39	O=C(Nc1cccc(-c2nnc(-c3ccco3)o2)c1)c1ccccc1Br [Compound 5]
–	–	–	–	3	O=C(Nc1cccc(-c2nnc(-c3ccco3)o2)c1)c1ccccc1C(F)(F)F [Compound 7]
–	47	–	–	87	O=C(Nc1cccc(-c2nnc(-c3ccco3)o2)c1)c1ccccc1C(F)F [Compound 9]
–	–	–	–	9	O=C(O)c1ccccc1C(=O)Nc1cccc(-c2nnc(-c3ccco3)o2)c1 [Compound 11]
58% and 85%	–	–	–	–	O=C(Nc1cccc(-c2nnc(-c3ccc[nH]3)o2)c1)c1ccccc1F [Compound 16]
–	–	–	–	2	O=C(Nc1cccc(-c2nnc(-c3ccc(Br)o3)o2)c1)c1ccccc1F [Compound 18]
–	–	–	–	2	Cc1ccc(-c2nnc(-c3cccc(NC(=O)c4ccccc4F)c3)o2)o1 [Compound 19]
–	13	–	–	–	O=C(Nc1cccc(-c2nnc(-c3ccoc3)o2)c1)c1ccccc1F [Compound 20, 2-fluoro-N-(3-(5-(furan-3-yl)-1,3,4-oxadiazol-2-yl)phenyl)benzamide]
–	–	–	1800	89	O=C(Nc1cc(-c2nnc(-c3ccco3)o2)ccc1Cl)c1ccccc1F [Compound 23]
–	–	–	–	2	O=C(Nc1ccc(Cl)c(-c2nnc(-c3ccco3)o2)c1)c1ccccc1F [Compound 24]
–	–	–	–	56	O=C(Nc1cc(-c2nnc(-c3ccco3)o2)ccc1Br)c1ccccc1F [Compound 25]
–	–	–	47	98	O=C(Nc1cc(-c2nnc(-c3ccco3)o2)ccc1F)c1ccccc1F [Compound 27]
–	16	–	–	5	O=C(Nc1ccc(-c2nnc(-c3ccco3)o2)cc1)c1ccccc1F [Compound 35, 2-fluoro-N-(4-(5-(furan-2-yl)-1,3,4-oxadiazol-2-yl)phenyl)benzamide]
–	–	–	1700	–	O=C(Nc1cccc(-c2cnc(-c3ccco3)o2)c1)c1ccccc1F [Compound 40]
–	–	43% and 68% and 75%	3800	–	O=C(Nc1cccc(-c2nnc(-c3ccco3)o2)c1)c1ccccc1 [Compound 46]
–	–	2%	–	–	O=C(Nc1cccc(-c2nnc(-c3ccco3)o2)c1)c1ccc(-c2ccccc2)cc1 [Compound 48]

% inh @ 1 μM	inhibition at 1 µM [%]	% inh @ 10 μM	IC50 [nM]	inhibition at 10 µM [%]	Compound
–	59	–	750	–	O=C(Nc1ccnc(-c2nnc(-c3ccco3)o2)c1)c1ccccc1F [Compound 52]
–	47	–	–	90	O=C(Nc1cccc(-c2nnc(-c3ccco3)o2)n1)c1ccccc1F [Compound 53]
–	81	–	130	100	COc1ccccc1C(=O)Nc1cccc(-c2nnc(-c3ccco3)o2)c1 [Compound 55]
–	–	–	–	2	N#Cc1ccccc1C(=O)Nc1cccc(-c2nnc(-c3ccco3)o2)c1 [Compound 56]
–	–	–	2400	45	COc1cccc(C(=O)Nc2cccc(-c3nnc(-c4ccco4)o3)c2)c1 [Compound 58]
–	–	–	2000	–	O=C(Nc1cccc(-c2nnc(-c3ccco3)o2)c1)c1cccc(Cl)c1 [Compound 59]
–	51	–	–	93	O=C(Nc1cccc(-c2nnc(-c3ccco3)o2)c1)c1cccc(OCc2ccccc2)c1 [Compound 71]
–	15	–	–	66	O=C(Nc1cccc(-c2nnc(-c3ccco3)o2)c1)c1ccc(Br)cc1F [Compound 73]
–	4	–	–	21	O=C(Nc1cccc(-c2nnc(-c3ccco3)o2)c1)c1ccc(-c2ccccc2)cc1F [Compound 74]
–	16	–	–	36	COC(=O)c1ccccc1C(=O)Nc1cccc(-c2nnc(-c3ccco3)o2)c1 [Compound 75]
–	89	–	110	–	O=C(Nc1cccc(-c2nnc(-c3ccco3)o2)c1F)c1ccccc1F [Compound 79, 2-fluoro-N-(2-fluoro-3-(5-(furan-2-yl)-1,3,4-oxadiazol-2-yl)phenyl)benzamide]
–	22	–	–	–	O=C(Nc1cc(-c2nnc(-c3ccc(Cl)o3)o2)c(F)cc1F)c1ccccc1F [Compound 80]
36%	20	–	–	–	Cc1ccc(NC(=O)c2ccccc2F)cc1-c1nnc(-c2ccco2)o1 [Compound 81]
–	5	–	–	–	O=C(Nc1cccc(-c2nnc(-c3ccco3)o2)c1)c1ccc(I)cc1 [Compound 84]
–	10	–	–	3	O=C(Nc1cccc(-c2nnc(-c3ccco3)o2)c1)c1ccc([N+](=O)[O-])cc1 [Compound 85]
–	3	–	–	7	O=C(Nc1cccc(-c2nnc(-c3ccco3)o2)c1)c1ccco1 [Compound 100]
